Measurements: DBAASP
Values after ≈ are worked out from the molar mass of the structure shown.

Legend:
Assay in all cases: ≥ marks a high value that may be exact or a test limit, other limits are often not marked, values filed in µg/mL are converted to µM
[1] = test system: Mannheimia haemolytica 82-25
[2] = test system: Bifidobacterium longum subsp. infantis
[3] = test system: Escherichia coli
[4] = test system: Staphylococcus aureus
[5] = test system: Escherichia coli C600
[6] = test system: Pseudomonas aeruginosa PAO1
[7] = test system: Staphylococcus aureus 209P
[8] = test system: Acinetobacter baumannii ATCC BAA-747
[9] = test system: Enterococcus faecium ATCC 700221
[10] = test system: Escherichia coli ATCC 25922
[11] = test system: Klebsiella pneumoniae ATCC 700603
[12] = test system: Pseudomonas aeruginosa ATCC 27853
[13] = test system: Salmonella enterica ATCC 6539
[14] = test system: Staphylococcus aureus ATCC 43300
[15] = test system: Acinetobacter baumannii ATCC 7978
[16] = test system: Klebsiella aerogenes ATCC 13048
[17] = test system: Klebsiella pneumoniae WGLW2
[18] = test system: Staphylococcus aureus ATCC 29231
[19] = test system: Staphylococcus aureus MW2
[20] = test system: Bacillus subtilis ATCC 6051
[21] = test system: Escherichia coli NEB5alpha
[22] = test system: Candida albicans ATCC 10231
[23] = test system: Cryptococcus neoformans ATCC 32264
[24] = test system: Acinetobacter baumannii ATCC 19606
[25] = test system: Acinetobacter baumannii
[26] = test system: Bacillus subtilis NBRC 3009
[27] = test system: Escherichia coli NBRC 3972
[28] = test system: Staphylococcus aureus NBRC 13276
[29] = test system: Aeromonas veronii ATCC 35624
[30] = test system: Aeromonas veronii CL0901
[31] = test system: Aeromonas veronii X-1-06909
[32] = test system: Candida albicans CMCC 98001
[33] = test system: Escherichia coli CVCC 1515
[34] = test system: Escherichia coli CVCC 195
[35] = test system: Escherichia coli CVCC 25922
[36] = test system: Escherichia coli CVCC O157
[37] = test system: Pseudomonas aeruginosa CICC 21630
[38] = test system: Salmonella enterica subsp. enterica serovar Enteritidis CVCC 3377
[39] = test system: Salmonella enterica subsp. enterica serovar Pullorum CVCC 1789
[40] = test system: Salmonella enterica subsp. enterica serovar Pullorum CVCC 1809
[41] = test system: Salmonella enterica subsp. enterica serovar Pullorum CVCC 533
[42] = test system: Salmonella enterica subsp. enterica serovar Typhimurium ATCC 14028
[43] = test system: Staphylococcus aureus ATCC 25923
[44] = test system: Staphylococcus aureus ATCC 546
[45] = test system: Staphylococcus hyicus NCTC 10350
[46] = test system: Staphylococcus hyicus

NCCCC[C@H](NC(=O)[C@H](CC(=O)O)NC(=O)[C@H](CC(=O)O)NC(=O)[C@H](CC(=O)O)NC(=O)[C@@H](N)CC(=O)O)C(=O)O [DDDDK]
MIC [1]: ≥ 90 µM

CSCC[C@H](NC(=O)[C@@H](N)CC(=O)O)C(=O)N[C@@H](CC(C)C)C(=O)N[C@H](C(=O)N[C@H](C(=O)N[C@@H](CC(=O)O)C(=O)N1CCC[C@H]1C(=O)N[C@@H](CCCCN)C(=O)O)C(C)C)C(C)C [DMLVVDPK]
MIC [2]: ≥ 3270 µM
MIC [3]: 3270 µM (≈ 3000 µg/mL)
MIC [4]: 3270 µM (≈ 3000 µg/mL)

CC[C@H](C)[C@@H]1NC(=O)CNC(=O)[C@H](CCCN=C(N)N)NC(=O)[C@H](Cc2ccc(O)cc2)NC(=O)[C@@H]2CSSC[C@H](NC1=O)C(=O)N[C@@H](Cc1ccc(O)cc1)C(=O)N[C@@H](CCCN=C(N)N)C(=O)N[C@@H](CCCN=C(N)N)C(=O)N[C@H](C(=O)N[C@@H](CCCN=C(N)N)C(=O)O)CSSC[C@H](NC(=O)[C@H](Cc1c[nH]c3ccccc13)NC(=O)[C@@H](N)CCCCN)C(=O)N[C@@H](Cc1ccccc1)C(=O)N[C@@H](CCCN=C(N)N)C(=O)N[C@@H](CO)C(=O)N2 [KWCFRSCYRGICYRRCR]
MIC [5]: 1.56 µM (≈ 3.51 µg/mL)
MIC [6]: 12.5 µM (≈ 28.2 µg/mL)
MIC [7]: 6.25 µM (≈ 14.1 µg/mL)

NCC(=O)NCC(=O)N[C@@H](Cc1cnc[nH]1)C(=O)O [GGH]
MIC [8]: ≥ 476 µM
MIC [9]: ≥ 476 µM
MIC [10]: > 476 µM
MIC [11]: > 476 µM
MIC [12]: > 476 µM
MIC [13]: ≥ 476 µM
MIC [14]: > 476 µM

CC[C@H](C)[C@H](NC(=O)[C@H](CCCCN)NC(=O)[C@H](Cc1c[nH]c2ccccc12)NC(=O)[C@@H](N)CC(C)C)C(=O)NCC(=O)N[C@@H](CCCCN)C(=O)N[C@@H](CCCCN)C(=O)N[C@H](C(=O)N[C@@H](Cc1c[nH]c2ccccc12)C(=O)N[C@@H](CCCN=C(N)N)C(=O)N[C@H](C(=O)NCC(=O)N[C@@H](Cc1c[nH]c2ccccc12)C(=O)N[C@@H](CC(N)=O)C(=O)N[C@@H](Cc1c[nH]c2ccccc12)C(=O)N[C@@H](CCCN=C(N)N)C(=O)O)C(C)C)[C@@H](C)CC [LWKIGKKIWRVGWNWR]
MIC [15]: 7.25 µM (≈ 15.4 µg/mL)
MIC [16]: ≥ 60.2 µM
MIC [17]: 30.1 µM (≈ 64 µg/mL)
MIC [18]: 30.1 µM (≈ 64 µg/mL)
MIC [19]: 30.1 µM (≈ 64 µg/mL)

CC(C)C[C@H](NC(=O)[C@H](C)NC(=O)[C@H](CC(=O)O)NC(=O)[C@H](CCC(=O)O)NC(=O)[C@H](CC(C)C)NC(=O)[C@H](Cc1ccccc1)NC(=O)[C@H](CC(=O)O)NC(=O)[C@@H](N)CCCN=C(N)N)C(=O)N[C@@H](CC(N)=O)C(=O)O [RDFLEDALN]
MIC [20]: ≥ 500 µM
MIC [21]: ≥ 1000 µM

C[C@H](N)C(=O)N[C@@H](CCC(N)=O)C(=O)N[C@@H](Cc1c[nH]c2ccccc12)C(=O)N[C@@H](CCCN=C(N)N)C(=O)N[C@@H](CCCN=C(N)N)C(=O)N[C@@H](Cc1c[nH]c2ccccc12)C(=O)N[C@@H](Cc1c[nH]c2ccccc12)C(=O)N[C@@H](CCC(N)=O)C(=O)N[C@@H](Cc1c[nH]c2ccccc12)C(=O)N[C@@H](CCCN=C(N)N)C(=O)N[C@@H](CCCN=C(N)N)C(N)=O [AQWRRWWQWRR]
MIC [22]: 50 µM (≈ 85.7 µg/mL)
MIC [23]: 25 µM (≈ 42.8 µg/mL)

CC[C@H](C)[C@H](NC(=O)[C@H](CO)NC(=O)[C@H](Cc1ccccc1)NC(=O)[C@H](CC(C)C)NC(=O)[C@H](CO)NC(=O)CNC(=O)[C@H](CC(C)C)NC(=O)[C@@H](N)Cc1ccccc1)C(=O)NCC(=O)N[C@@H](CO)C(=O)N[C@@H](CCCCN)C(=O)N[C@@H](CC(C)C)C(=O)N[C@@H](CC(C)C)C(=O)N1CCC[C@H]1C(=O)NCC(=O)N[C@H](C(=O)N[C@H](C(=O)N[C@@H](CCCCN)C(=O)N[C@@H](CC(C)C)C(=O)N[C@@H](Cc1ccccc1)C(=O)N[C@@H](CCC(N)=O)C(=O)N[C@@H](CCCN=C(N)N)C(=O)N[C@@H](CCCCN)C(=O)N[C@@H](CCCCN)C(=O)N[C@@H](CCC(N)=O)C(N)=O)[C@@H](C)CC)C(C)C [FLGSLFSIGSKLLPGVIKLFQRKKQ]
MIC [24]: 0.9 µM (≈ 2.52 µg/mL)
MIC [25]: 1.8 µM (≈ 5.05 µg/mL)
MIC [26]: 0.707 µM (≈ 1.98 µg/mL)
MIC [27]: 10 µM (≈ 28 µg/mL)
MIC [28]: 3.54 µM (≈ 9.92 µg/mL)

CC(C)[C@@H]1NC(=O)CNC(=O)[C@H](CC(N)=O)NC(=O)[C@H](CCCN=C(N)N)NC(=O)[C@H](Cc2ccc(O)cc2)NC(=O)[C@H](C(C)C)NC(=O)[C@@H](NC(=O)[C@@H](NC(=O)[C@H](CC(N)=O)NC(=O)[C@H](Cc2c[nH]c3ccccc23)NC(=O)[C@H](C)NC(=O)[C@H](Cc2ccccc2)NC(=O)CN)C(C)C)CSSC[C@@H](C(=O)N[C@@H](Cc2cnc[nH]2)C(=O)N[C@@H](CCCN=C(N)N)C(=O)N2CCC[C@H]2C(=O)N[C@@H](C)C(=O)N[C@@H](CC(N)=O)C(N)=O)NC(=O)[C@H](C(C)C)NC(=O)[C@H](CCCN=C(N)N)NC1=O [GFAWNVCVYRNGVRVCHRPAN]
MIC [29]: 26.5 µM (≈ 63.9 µg/mL)
MIC [30]: 26.5 µM (≈ 63.9 µg/mL)
MIC [31]: 26.5 µM (≈ 63.9 µg/mL)
MIC [32]: ≥ 52.9 µM
MIC [33]: 1.65 µM (≈ 4 µg/mL)
MIC [34]: 3.31 µM (≈ 7.99 µg/mL)
MIC [35]: 3.31 µM (≈ 7.99 µg/mL)
MIC [36]: 3.31 µM (≈ 7.99 µg/mL)
MIC [37]: 26.5 µM (≈ 63.9 µg/mL)
MIC [38]: 0.827 µM (≈ 2 µg/mL)
MIC [39]: 6.62 µM (≈ 16 µg/mL)
MIC [40]: 3.31 µM (≈ 7.99 µg/mL)
MIC [41]: 13.2 µM (≈ 32 µg/mL)
MIC [42]: 6.62 µM (≈ 16 µg/mL)
MIC [43]: > 26.5 µM
MIC [14]: > 26.5 µM
MIC [44]: 26.5 µM (≈ 63.9 µg/mL)
MIC [45]: ≥ 52.9 µM
MIC [46]: 26.5 µM (≈ 63.9 µg/mL)
